Reference: ChEMBL document CHEMBL4364308, “Design, synthesis, in-silico and biological evaluation of novel chalcone derivatives as multi-function agents for the treatment of Alzheimer's disease” (Eur J Med Chem, 2019)
The source made the active and inactive calls. The calls are words filed in the database; no cut-off is given here.

How the values were obtained:
Cholinesterase = Cholinesterase (Equus caballus, UniProt P81908); test: Inhibition of equine serum BuChE using butyrylthiocholine iodide as substrate incubated for 15 mins by Ellman's method
Cholinesterase, sequence (P81908 whole entry): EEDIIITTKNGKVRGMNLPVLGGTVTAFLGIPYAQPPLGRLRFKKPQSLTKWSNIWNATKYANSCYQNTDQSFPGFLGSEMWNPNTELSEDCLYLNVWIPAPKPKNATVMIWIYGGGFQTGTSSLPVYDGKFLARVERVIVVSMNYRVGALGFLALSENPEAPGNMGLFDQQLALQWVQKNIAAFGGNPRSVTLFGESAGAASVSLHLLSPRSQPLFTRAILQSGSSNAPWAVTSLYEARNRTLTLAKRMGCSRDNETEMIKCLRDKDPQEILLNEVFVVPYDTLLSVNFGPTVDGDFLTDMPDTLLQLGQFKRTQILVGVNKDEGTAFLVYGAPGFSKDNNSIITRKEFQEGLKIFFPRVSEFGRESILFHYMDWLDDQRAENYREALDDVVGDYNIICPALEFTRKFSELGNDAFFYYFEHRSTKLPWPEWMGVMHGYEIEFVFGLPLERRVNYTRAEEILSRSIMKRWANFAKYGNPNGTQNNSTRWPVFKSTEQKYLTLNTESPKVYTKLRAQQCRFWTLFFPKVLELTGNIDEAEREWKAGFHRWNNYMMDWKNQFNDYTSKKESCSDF

[1] = Antioxidant activity assessed as AAPH radical scavenging activity preincubated for 15 mins followed by AAPH addition measured every min for 90 mins by ORAC-FL assay relative to trolox; format: functional
[2] = Selectivity index, ratio of IC50 for electric eel AChE to IC50 for equine serum BuChE
[3] = target: T1, Amine oxidase [flavin-containing] A (Homo sapiens, UniProt P21397); test: Inhibition of recombinant human MAO-A expressed in baculovirus infected BTI insect cells using kynuramine as substrate incubated for 30 mins by fluorescence based assay
T1 sequence (P21397 whole entry): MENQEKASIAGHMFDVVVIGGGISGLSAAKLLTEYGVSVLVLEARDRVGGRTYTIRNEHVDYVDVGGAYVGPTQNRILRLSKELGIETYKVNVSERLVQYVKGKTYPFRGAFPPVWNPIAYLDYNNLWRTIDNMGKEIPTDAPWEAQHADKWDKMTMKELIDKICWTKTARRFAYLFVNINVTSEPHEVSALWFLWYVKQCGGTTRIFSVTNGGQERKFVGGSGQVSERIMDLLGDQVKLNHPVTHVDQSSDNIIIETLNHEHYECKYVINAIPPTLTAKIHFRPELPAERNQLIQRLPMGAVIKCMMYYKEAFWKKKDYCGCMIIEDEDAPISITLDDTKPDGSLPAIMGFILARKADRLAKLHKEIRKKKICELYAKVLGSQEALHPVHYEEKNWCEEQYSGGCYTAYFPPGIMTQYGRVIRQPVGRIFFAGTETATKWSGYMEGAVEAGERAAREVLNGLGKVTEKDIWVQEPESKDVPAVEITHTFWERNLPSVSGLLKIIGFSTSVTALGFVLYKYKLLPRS

Homo sapiens = organism: Homo sapiens; test: Selectivity index, ratio of IC50 for recombinant human MAO-A expressed in baculovirus infected BTI insect cells to IC50 for recombinant human MAO-B expressed in baculovirus infected BTI insect cells
[4] = target: T2, Amine oxidase [flavin-containing] B (Homo sapiens, UniProt P27338); test: Inhibition of recombinant human MAO-B expressed in baculovirus infected BTI insect cells using kynuramine as substrate incubated for 30 mins by fluorescence based assay; format: cell-based
T2 sequence (P27338 whole entry): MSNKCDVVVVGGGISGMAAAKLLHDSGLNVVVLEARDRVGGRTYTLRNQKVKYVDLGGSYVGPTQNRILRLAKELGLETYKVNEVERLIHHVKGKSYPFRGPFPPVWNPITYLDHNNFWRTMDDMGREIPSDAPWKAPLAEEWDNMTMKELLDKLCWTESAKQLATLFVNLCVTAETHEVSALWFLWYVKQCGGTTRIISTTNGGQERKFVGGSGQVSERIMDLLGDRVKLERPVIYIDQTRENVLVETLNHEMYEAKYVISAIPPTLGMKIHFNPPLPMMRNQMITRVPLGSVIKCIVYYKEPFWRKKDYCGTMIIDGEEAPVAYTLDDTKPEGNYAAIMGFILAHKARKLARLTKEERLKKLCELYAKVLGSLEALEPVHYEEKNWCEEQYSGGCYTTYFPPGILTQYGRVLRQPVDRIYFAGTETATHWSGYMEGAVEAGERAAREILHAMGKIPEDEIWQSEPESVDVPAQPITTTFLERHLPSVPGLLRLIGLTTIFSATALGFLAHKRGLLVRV

Acetylcholinesterase = Acetylcholinesterase (Electrophorus electricus, UniProt O42275); test: Inhibition of electric eel AChE using acetylthiocholine iodide as substrate incubated for 15 mins by Ellman's method; format: ADME
Acetylcholinesterase, sequence (O42275 whole entry): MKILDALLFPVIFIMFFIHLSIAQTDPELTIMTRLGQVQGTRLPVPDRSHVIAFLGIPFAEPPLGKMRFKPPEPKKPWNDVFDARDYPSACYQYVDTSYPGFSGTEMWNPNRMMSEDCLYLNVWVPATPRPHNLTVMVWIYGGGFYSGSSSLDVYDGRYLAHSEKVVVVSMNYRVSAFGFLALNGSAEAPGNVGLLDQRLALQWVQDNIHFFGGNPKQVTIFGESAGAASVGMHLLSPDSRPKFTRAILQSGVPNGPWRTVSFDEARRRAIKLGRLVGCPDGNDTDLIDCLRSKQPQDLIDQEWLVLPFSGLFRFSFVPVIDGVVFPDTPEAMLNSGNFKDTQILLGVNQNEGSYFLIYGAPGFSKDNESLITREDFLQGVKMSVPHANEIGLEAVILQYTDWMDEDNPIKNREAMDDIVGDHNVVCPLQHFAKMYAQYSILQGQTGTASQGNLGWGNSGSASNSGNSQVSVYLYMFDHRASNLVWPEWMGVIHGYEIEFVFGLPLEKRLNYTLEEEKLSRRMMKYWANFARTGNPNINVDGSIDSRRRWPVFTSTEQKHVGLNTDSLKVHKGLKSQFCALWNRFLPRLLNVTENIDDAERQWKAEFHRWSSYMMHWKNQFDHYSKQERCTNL

[5] = Permeability of compound at 100 ug/ml measured after dilution with PBS/EtOH (70:30) at pH 7.4 after 18 hrs by PAMPA-BBB assay
[6] = target: Amyloid-beta precursor protein (Homo sapiens) (UniProt P05067); test: Inhibition of self-induced aggregation of amyloid beta (1 to 42) (unknown origin) at 25 uM incubated for 24 hrs by thioflavin-T fluorescence assay relative to control
Amyloid-beta precursor protein (Homo sapiens), sequence (P05067 whole entry): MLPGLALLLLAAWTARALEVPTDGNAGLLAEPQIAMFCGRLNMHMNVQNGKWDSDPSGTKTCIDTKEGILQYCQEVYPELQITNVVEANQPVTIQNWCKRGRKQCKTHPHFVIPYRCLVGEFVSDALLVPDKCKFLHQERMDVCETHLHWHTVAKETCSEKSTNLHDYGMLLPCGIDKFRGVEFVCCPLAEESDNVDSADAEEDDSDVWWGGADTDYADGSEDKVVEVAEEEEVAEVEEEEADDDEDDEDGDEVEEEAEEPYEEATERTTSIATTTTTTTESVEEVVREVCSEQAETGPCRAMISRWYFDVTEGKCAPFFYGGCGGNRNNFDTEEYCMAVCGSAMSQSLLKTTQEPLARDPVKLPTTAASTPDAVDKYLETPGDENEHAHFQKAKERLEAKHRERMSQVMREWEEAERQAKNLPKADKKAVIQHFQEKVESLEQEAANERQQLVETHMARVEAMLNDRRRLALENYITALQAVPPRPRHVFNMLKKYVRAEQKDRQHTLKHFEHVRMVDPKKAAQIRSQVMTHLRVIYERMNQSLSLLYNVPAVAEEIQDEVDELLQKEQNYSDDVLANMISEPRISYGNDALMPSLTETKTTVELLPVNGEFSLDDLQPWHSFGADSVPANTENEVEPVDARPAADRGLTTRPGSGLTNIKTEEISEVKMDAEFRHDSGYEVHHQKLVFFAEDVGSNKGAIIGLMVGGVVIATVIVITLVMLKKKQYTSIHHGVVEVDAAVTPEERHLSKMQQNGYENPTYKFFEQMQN

[7] = target: T1, Amine oxidase [flavin-containing] A; test: Inhibition of recombinant human MAO-A expressed in baculovirus infected BTI insect cells at 10 uM incubated for 30 mins using kynuramine as substrate by fluorescence based assay relative to control; conditions: 0.5 h
[8] = target: Cholinesterase (Equus caballus) (UniProt P81908); test: Reversible inhibition of equine serum BuChE assessed as enzyme activity at 0.1xIC50 using butyrylthiocholine iodide as substrate measured after dilution by Ellman's method relative to control; parameters: scale not given: the % may be the effect or the level left
Cholinesterase (Equus caballus), sequence (P81908 whole entry): as the sequence (P81908 whole entry) above

[9] = target: Cholinesterase (Equus caballus) (UniProt P81908); test: Reversible inhibition of equine serum BuChE assessed as enzyme activity at 1xIC50 using butyrylthiocholine iodide as substrate measured after dilution by Ellman's method relative to control; parameters: scale not given: the % may be the effect or the level left
[10] = target: Cholinesterase (Equus caballus) (UniProt P81908); test: Reversible inhibition of equine serum BuChE assessed as enzyme activity at 0.1xIC50 using butyrylthiocholine iodide as substrate measured at 240 mins after dilution by Ellman's method relative to control; parameters: scale not given: the % may be the effect or the level left
PC-12 [11] = test: Cytotoxicity against rat PC12 cells assessed as cell viability at 0.1 to 100 uM incubated for 24 hrs by MTT assay; format: cell-based; conditions: pc-12, 24 h
[12] = Metal chelating activity assessed as compound-Cu2+ complex formation by measuring shift in maximum absorption from 361 nm to 418 nm at 37.5 uM after 30 mins by UV-visible spectrometry method
[13] = Metal chelating activity assessed as compound-Zn2+ complex formation assessed as effect on maximum absorption shift at 37.5 uM after 30 mins by UV-visible spectrometry method
[14] = Metal chelating activity assessed as compound-Fe2+ complex formation assessed as effect on maximum absorption shift at 37.5 uM after 30 mins by UV-visible spectrometry method
[15] = Acute toxicity in Kunming mouse assessed as mortality at 250 to 1000 mg/kg, po measured for first 4 hrs through 14 days; format: organism-based; conditions: in vivo
[16] = Metal chelating activity assessed as compound-Fe3+ complex formation assessed as effect on maximum absorption shift at 37.5 uM after 30 mins by UV-visible spectrometry method
[17] = Metal chelating activity assessed as compound-Cu+ complex formation assessed as effect on maximum absorption shift at 37.5 uM after 30 mins by UV-visible spectrometry method
Mus musculus [18] = test: (§1) Antialzheimer activity in po dosed scopolamine-induced memory impairment Kunming mouse model assessed as increase in latency time treated with compound 1 hr before training trial followed by 30 mins later administration with scopolamine and measured 24 hrs after training trial by step-down passive avoidance test; format: functional, organism-based
[19] = Acute toxicity in Kunming mouse assessed as abnormal behaviour at 250 to 1000 mg/kg, po measured for first 4 hrs through 14 days; format: organism-based; conditions: in vivo
[20] = Inhibition of Cu2+ induced human amyloid beta (1 to 42) aggregation at 25 uM after 24 hrs by thioflavin-T fluorescence assay relative to control
[21] = Metal chelating activity assessed as compound-Al3+ complex formation by measuring shift in maximum absorption from 361 nm to 426 nm at 37.5 uM after 30 mins by UV-visible spectrometry method
PC-12 [22] = test: Neuroprotective activity against H2O2-induced cell death in rat PC12 cells assessed as increase in cell viability preincubated for 24 hrs followed by H2O2 stimulation for 2 hrs followed by replacement of fresh medium and measured after 24 hrs by MTT assay; format: functional, cell-based
[23] = Disaggregation of Cu2+ induced preformed fibrils of amyloid beta (1 to 42) (unknown origin) at 25 uM after 24 hrs by transmission electron microscopy relative to control
Mus musculus [24] = test: as §1, with “in” for “in po dosed”, “as” for “as increase in”, “time at 16.8 mg/kg po” for “time”, “test (reference value: 70.4 secs)” for “test”; format: functional
PC-12 [25] = test: Neuroprotective activity against H2O2-induced cell death in rat PC12 cells assessed as cell viability at 1 uM preincubated for 24 hrs followed by H2O2 stimulation for 2 hrs followed by replacement of fresh medium and measured after 24 hrs by MTT assay (reference value: 51.3%); format: functional; conditions: read-out: Activity
PC-12 [26] = test: Neuroprotective activity against H2O2-induced cell death in rat PC12 cells assessed as cell viability at 10 uM preincubated for 24 hrs followed by H2O2 stimulation for 2 hrs followed by replacement of fresh medium and measured after 24 hrs by MTT assay (reference value: 51.3%); format: functional; conditions: read-out: Activity

| SMILES | IC50 (Cholinesterase) [µM] | Activity [1] [µMequiv/µM] | Ratio IC50 [2] | IC50 [3] [µM] | Ratio IC50 (Homo sapiens) | IC50 [4] [µM] | IC50 (Acetylcholinesterase) [µM] | Papp at 18 h, 100 ug/ml [5] [×10⁻⁶ cm/s] | inhibition [6] [%] | inhibition at 10 µM [7] [%] | other results |
| --- | --- | --- | --- | --- | --- | --- | --- | --- | --- | --- | --- |
| O=C(/C=C/c1cccc(OCCCCCCN2CCc3ccccc3C2)c1)c1ccccc1O | 4.1 | 1.1 | 6.6 | 31.5 | 4.7 | 6.7 | 27.1 | 11.8 | 65.6 |  |  |
| O=C(/C=C/c1cccc(OCCCCN2CCC(Cc3ccccc3)CC2)c1)c1ccccc1O | 4.9 | 1.2 | 3.1 |  |  | 6.4 | 15.3 | 12.3 | 71.4 | < 5 |  |
| CN(C)c1ccc(/C=C/C(=O)c2ccc(OCCCCCCN3CCc4ccccc4C3)cc2O)cc1 | 10.4 | 1.6 | 0.6 |  |  | 7.1 | 6.6 | 13.2 | 97.5 | < 5 |  |
| COc1cc2c(cc1OC)C(=O)C(CC1CCN(Cc3ccccc3)CC1)C2 (centres undefined) |  |  |  |  |  |  |  |  |  |  | Activity [8]: 60.5%; Activity [9]: 50.9%; Activity [10]: 127% |
| COc1ccccc1/C=C/C(=O)c1ccc(OCCCCN2CCc3ccccc3C2)cc1O | 5.2 | 1.5 | 1.6 | 30.1 | 2.4 | 9.5 | 8.3 | 13.1 | 83.1 |  |  |
| O=C(CCc1cccc(OCCCCN2CCc3ccccc3C2)c1)c1ccccc1O | 0.64 | 1.4 | 36 |  |  | 26.7 | 23.1 | 16.8 |  | < 5 |  |
| O=C(/C=C/c1cccc(OCCCCCN2CCc3ccccc3C2)c1)c1ccccc1O | 3.7 | 1.2 | 7.2 |  |  | 4.8 | 18.6 | 10 | 69.7 | < 5 |  |
| O=C(/C=C/c1cccc(OCCCCN2CCc3ccccc3C2)c1)c1ccccc1O | 2.6 | 1.2 | 6.2 |  |  | 5.3 | 16.2 | 11.3 | 70.2 | < 5 | Activity (PC-12 [11]): Non-Toxic; Activity [12]: Active; Activity [13]: inactive; Activity [14]: inactive; Activity [15]: Non-Toxic; Activity [16]: inactive; Activity [17]: inactive; Activity (Mus musculus [18]): Dose-dependent effect; Activity [8]: 60.8%; Activity [19]: Non-Toxic; inhibition [20]: 80.7%; Activity [21]: Active; Activity (PC-12 [22]): Dose-dependent effect; inhibition [23]: 73.5%; Activity [9]: 52.6%; Time (Mus musculus [24]): 126.4 s; Activity [10]: 104%; viability at 1 µM (PC-12 [25]): 61.9%; viability at 10 µM (PC-12 [26]): 82.6% |
| O=C(/C=C/c1ccc(F)cc1)c1ccc(OCCCN2CCc3ccccc3C2)cc1O | 13.4 | 0.92 | 1.7 | 26.1 | 2.1 | 12.6 | 22.3 | 12.6 | 72.4 |  |  |
| O=C(/C=C/c1cccc(OCCCN2CCc3ccccc3C2)c1)c1ccccc1O | 11.2 | 1.1 | 1.6 | 29.8 | 2.8 | 10.7 | 17.6 | 10.2 | 65.9 |  |  |
| COc1cc(/C=C/C(=O)CC(=O)/C=C/c2ccc(O)c(OC)c2)ccc1O |  |  |  |  |  |  |  |  |  |  | inhibition [20]: 76.5%; inhibition [23]: 56.5% |
